Assay results: patent US20080318943A1, “Compounds and Uses Thereof - 848” (ASTRAZENECA AB, priority 2007, published 2008)

Key:
[1] = target: T1, GABAA2 receptors (α2, β3, γ2 receptor subunits transfected into Sf9 cells) (Homo sapiens, UniProt P18507+P47869); assay: GABAA2 Binding Method ([3H]-Flunitrazepam displacement); settings: [3H]-Flunitrazepam ~2 nM, α2β3γ2 Sf9 membranes, 1 hr at 4° C.
T1 construct: host or cells: Sf9 cells (membranes)
Procedure, shortened: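 Membranes from Sf9 cells expressing α2β3γ2 GABAA receptors incubated with ~2 nM (final) [3H]-flunitrazepam and test compound 1 h at 4 °C, then filtered on GF/B plates with cold-buffer washes. Flumazenil-defined controls; percent of control, IC50 and Ki calculated.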

GABAA receptor α1β2γ2 = target: T2, GABAA receptor α1β2γ2 (Homo sapiens, UniProt P14867+P18507); assay: Two-electrode voltage-clamp potentiation of GABA EC10 current in Xenopus oocytes, GABAA1; format: cell-based; settings: percentage potentiation of GABA EC10 current divided by that of diazepam
T2 construct: expressed in transfected cells; host or cells: Xenopus laevis oocytes injected with cRNA
T2 sequence (P14867 28-456): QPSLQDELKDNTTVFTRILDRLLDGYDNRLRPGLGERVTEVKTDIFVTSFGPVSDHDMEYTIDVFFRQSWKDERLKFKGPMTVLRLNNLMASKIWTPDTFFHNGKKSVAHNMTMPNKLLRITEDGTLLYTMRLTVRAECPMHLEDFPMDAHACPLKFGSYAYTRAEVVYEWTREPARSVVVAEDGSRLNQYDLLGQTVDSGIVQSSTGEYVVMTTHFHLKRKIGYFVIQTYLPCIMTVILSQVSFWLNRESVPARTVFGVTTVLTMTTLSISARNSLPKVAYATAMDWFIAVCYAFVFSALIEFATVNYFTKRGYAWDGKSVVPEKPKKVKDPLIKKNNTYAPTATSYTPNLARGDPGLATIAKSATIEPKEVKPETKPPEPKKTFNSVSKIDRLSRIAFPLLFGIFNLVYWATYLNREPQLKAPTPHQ
T2 sequence (P47870 25-512 partner limits assumed): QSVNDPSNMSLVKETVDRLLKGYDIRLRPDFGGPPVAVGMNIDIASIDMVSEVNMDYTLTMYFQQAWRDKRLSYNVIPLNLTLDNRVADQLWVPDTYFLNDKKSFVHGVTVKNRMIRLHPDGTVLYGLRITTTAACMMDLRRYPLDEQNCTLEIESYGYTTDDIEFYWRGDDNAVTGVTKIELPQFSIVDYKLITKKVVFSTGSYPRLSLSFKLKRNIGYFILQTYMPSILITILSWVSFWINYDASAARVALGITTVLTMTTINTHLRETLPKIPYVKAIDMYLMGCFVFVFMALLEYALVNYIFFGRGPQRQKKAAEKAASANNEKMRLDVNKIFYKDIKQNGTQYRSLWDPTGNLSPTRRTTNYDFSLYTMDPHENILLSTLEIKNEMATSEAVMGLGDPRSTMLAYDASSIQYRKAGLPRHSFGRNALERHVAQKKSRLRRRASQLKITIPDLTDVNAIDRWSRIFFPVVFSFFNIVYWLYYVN
T2 sequence (P18507 40-475): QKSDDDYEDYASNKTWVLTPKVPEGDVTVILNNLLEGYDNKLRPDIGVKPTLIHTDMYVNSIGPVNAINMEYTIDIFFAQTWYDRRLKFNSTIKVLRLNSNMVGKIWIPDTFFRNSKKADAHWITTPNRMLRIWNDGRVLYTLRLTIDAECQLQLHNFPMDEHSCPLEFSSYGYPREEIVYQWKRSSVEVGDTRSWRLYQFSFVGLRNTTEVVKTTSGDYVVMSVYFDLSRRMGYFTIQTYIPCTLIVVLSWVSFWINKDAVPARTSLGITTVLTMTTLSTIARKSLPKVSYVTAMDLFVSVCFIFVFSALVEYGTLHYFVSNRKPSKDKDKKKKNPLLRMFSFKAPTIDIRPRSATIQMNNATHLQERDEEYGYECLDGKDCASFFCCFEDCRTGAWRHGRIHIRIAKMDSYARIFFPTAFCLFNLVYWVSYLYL
Procedure, shortened: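 Human GABAA receptors expressed in Xenopus oocytes by cRNA injection (α:β:γ molar ratio ~1:1:10 for α1β2γ2, 1:1:1 for α2β3γ2), recorded 2-10 days later by two-electrode voltage clamp at −60 mV in ND-96, pH 7.5. Modulator preapplied 30 s before GABA at per-oocyte EC10. Peak-current percent potentiation over GABA alone, normalised to diazepam.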

GABAA receptor α2β3γ2 = target: T3, GABAA receptor α2β3γ2 (Homo sapiens, UniProt P18507+P47869); assay: Two-electrode voltage-clamp potentiation of GABA EC10 current in Xenopus oocytes, GABAA2; format: cell-based; settings: percentage potentiation of GABA EC10 current divided by that of diazepam
T3 construct: expressed in transfected cells; host or cells: Xenopus laevis oocytes injected with cRNA
T3 sequence (P47869 29-451): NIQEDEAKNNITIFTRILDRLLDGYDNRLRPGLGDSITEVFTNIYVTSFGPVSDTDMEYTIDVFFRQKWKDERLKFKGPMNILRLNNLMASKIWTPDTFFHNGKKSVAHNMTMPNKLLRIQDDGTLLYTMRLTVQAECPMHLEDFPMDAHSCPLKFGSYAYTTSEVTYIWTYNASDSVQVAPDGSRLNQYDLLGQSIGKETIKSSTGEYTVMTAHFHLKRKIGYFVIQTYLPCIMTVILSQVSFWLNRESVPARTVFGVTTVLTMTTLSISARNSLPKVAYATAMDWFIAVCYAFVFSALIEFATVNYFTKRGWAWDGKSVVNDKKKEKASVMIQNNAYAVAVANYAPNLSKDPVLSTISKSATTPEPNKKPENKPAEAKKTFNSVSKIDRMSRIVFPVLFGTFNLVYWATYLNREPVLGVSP
T3 sequence (P28472 26-473 partner): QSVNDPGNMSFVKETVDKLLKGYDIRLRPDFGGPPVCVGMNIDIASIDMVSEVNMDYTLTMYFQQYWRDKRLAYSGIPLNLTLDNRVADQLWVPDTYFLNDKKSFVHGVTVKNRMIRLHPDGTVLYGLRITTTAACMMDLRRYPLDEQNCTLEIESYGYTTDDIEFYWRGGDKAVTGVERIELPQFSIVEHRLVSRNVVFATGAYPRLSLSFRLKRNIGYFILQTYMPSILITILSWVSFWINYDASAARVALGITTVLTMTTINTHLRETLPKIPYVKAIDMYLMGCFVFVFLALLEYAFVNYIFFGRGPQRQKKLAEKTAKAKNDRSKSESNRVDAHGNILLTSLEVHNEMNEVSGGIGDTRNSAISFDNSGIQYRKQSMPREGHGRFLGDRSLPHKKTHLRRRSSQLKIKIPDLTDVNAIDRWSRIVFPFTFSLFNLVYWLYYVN
T3 sequence (P18507 40-475): as the sequence (P18507 40-475) above
Procedure: GABAA receptors were heterologously expressed in Xenopus oocytes by injecting cRNA corresponding to human α1, α2, α3, α5, β2, P3 and γ2 subunits of the GABAA receptor genes. The specific subunit combinations (subtypes) were as follows: α1β2γ2, α2β3γ2, α3β3γ2, and α5β3γ2. The EC10 of GABA is approximated for each cell. Stability of GABA-mediated (EC10) current is established. Modulatory effect of test compound is determined and compared across subtypes. […] Thus, the assay can characterize modulatory effects and determine subtype selectivity of test compounds on major subtypes of GABAA receptors.
Xenopus laevis frogs (Xenopus I, Kalamazoo, Mich.) were anesthetized using 0.15% tricaine. Surgically removed ovarian lobes were teased out in OR2 solution (82 NaCl, 2.5 KCl, 5 HEPES, 1.5 NaH2PO4, 1 MgCl2, 0.1 EDTA, in mM, pH 7.4). The oocytes were defolliculated by incubation in 25 mL OR2 containing 0.2% collagenase 1A (SIGMA) two times for about 60 minutes on a platform shaker and stored in Leibovitz's L-15 medium. Oocytes were injected the following day in 0.5× Leibovitz's L-15 medium containing […] gentamycin, 10 units/ml penicillin, and […] streptomycin.
Capped cRNAs from the linearized vectors containing human α1, β2 and γ2 subunits of the GABAA receptor genes were mixed in ratio of […]. Oocytes were injected with 25-50 nL of mixed RNA with an appx molar ratio for α1, β2, and γ2 as 1:1:10. Oocyte recordings were done 2-10 days after injection. The same methods apply to subtypes derived from α2β3γ2, α3β3γ2, and α5β3γ2, except for 1:1:1 ratio was used for α, β, and γ subunits.
All measurements were done in a medium containing ND-96 (96 NaCl, 2 KCl, 1.8 CaCl2.2H2O, 1 MgCl2.6H2O, 5 HEPES, in mM, pH 7.5). Two-electrode voltage-clamp recording was carried out using OpusXpress amplifier (Axon Instruments, Foster City, Calif.), which allows simultaneous recording from 8 oocytes. Oocytes were impaled with two electrodes of 1-2 MΩ tip resistance when filled with 3M KCl. Recordings were begun when membrane potential became stable at potentials negative to −50-−60 mV. Membrane potential was held at −60 mV. […] The concentration of GABA corresponded to the EC10 value calculated for each oocyte. The modulator pulses started 30 s before the GABA pulse so as to allow preincubation with the modulator. A set of 3 pulses with just GABA without modulator was given prior to the modulator-containing pulses to define the baseline GABA response. Two oocytes per each experiment were dedicated to observe the effect of diazepam on GABA response to ensure the presence of γ2 subunit in the GABAA pentameric complex, which imparts diazepam sensitivity to the complex.
Current amplitude (i) was measured from baseline to peak using Clampfit (Axon Inst., Foster City, Calif.). Potentiation was calculated as percent change from the baseline GABA current flux 100×(imod/icontrol)−1) where imod=current mediated by modulator+GABA and icontrol=current mediated by GABA alone. […] Similarly, a value of −50% potentiation means the presence of modulator caused a 50% decrease in the control current. Various other data shown here were fitted and plotted using GraphPad Prism (GraphPad Software, Inc. San Diego, Calif.). The percentage potentiation was converted to relative potentiation by dividing it with percentage potentiation value obtained from the same assay with diazepam as a control.

T1 sequence (P47869 29-451): as the sequence (P47869 29-451) above
T1 sequence (P28472 26-473 partner): as the sequence (P28472 26-473 partner) above
T1 sequence (P18507 40-475): as the sequence (P18507 40-475) above

| Structure (SMILES) | Ki [1] [nM] | Relative Potentiation for GABAA1 (GABAA receptor α1β2γ2) | Relative Potentiation for GABAA2 (GABAA receptor α2β3γ2) |
| --- | --- | --- | --- |
| CCCN1Cc2nc3c(-c4ccccc4C#N)cccc3c(N)c2C1=O [2-(9-amino-1-oxo-2-propyl-2,3-dihydro-1H-pyrrolo[3,4-b]quinolin-5-yl)benzonitrile] | 30.7 | 0.15 | 0.21 |
| N#Cc1cncc(-c2cccc3c(N)c4c(nc23)CN(C2CCC2)C4=O)c1 [5-(9-Amino-2-cyclobutyl-1-oxo-2,3-dihydro-1H-pyrrolo[3,4-b]quinolin-5-yl)-nicotinonitrile] | 5.85 | 0.048 | 0.21 |
| N#Cc1ccc(-c2cccc3c(N)c4c(nc23)CN(C2CCC2)C4=O)cn1 [5-(9-Amino-2-cyclobutyl-1-oxo-2,3-dihydro-1H-pyrrolo[3,4-b]quinolin-5-yl)-pyridine-2-carbonitrile] | 15.6 | −0.038 | 0.17 |
| N#Cc1ccc(-c2cccc3c(N)c4c(nc23)CN(C2CCC2)C4=O)nc1 [6-(9-Amino-2-cyclobutyl-1-oxo-2,3-dihydro-1H-pyrrolo[3,4-b]quinolin-5-yl)-nicotinonitrile] | 2.39 | 0.005 | 0.15 |
| COc1ccc(CN2Cc3nc4c(-c5c(F)cccc5OC)cccc4c(N)c3C2=O)cc1Cl [9-Amino-2-(3-chloro-4-methoxybenzyl)-5-(2-fluoro-6-methoxyphenyl)-2,3-dihydropyrrolo[3,4-b]quinolin-1-one] | 10.3 | 0.088 | 0.15 |
| Cc1cccc(-c2cccc3c(N)c4c(nc23)C(O)N(C2CCC2)C4=O)n1 (stereo not drawn) [9-Amino-2-cyclobutyl-3-hydroxy-5-(6-methylpyridin-2-yl)-2,3-dihydropyrrolo[3,4-b]quinolin-1-one] | 7.62 | −0.052 | 0.1 |
| Cc1nn(C)cc1-c1cccc2c(N)c3c(nc12)CN(C1CCC1)C3=O [9-Amino-2-cyclobutyl-5-(1,3-dimethyl-1H-pyrazol-4-yl)-2,3-dihydropyrrolo[3,4-b]quinolin-1-one] | 3.91 | 0.017 | 0.43 |
| Cn1cc(-c2cccc3c(N)c4c(nc23)CN(C2CCC2)C4=O)cn1 [9-Amino-2-cyclobutyl-5-(1-methyl-1H-pyrazol-4-yl)-2,3-dihydropyrrolo[3,4-b]quinolin-1-one] | 3.76 | 0.01 | 0.18 |
| COc1ncc(-c2c(F)ccc3c(N)c4c(nc23)CN(C2CCC2)C4=O)c(OC)n1 [9-Amino-2-cyclobutyl-5-(2,4-dimethoxypyrimidin-5-yl)-6-fluoro-2,3-dihydropyrrolo[3,4-b]quinolin-1-one] | 0.953 | 0.11 | 0.4 |
| COc1cnc(OC)c(-c2cccc3c(N)c4c(nc23)CN(C2CCC2)C4=O)c1 [9-Amino-2-cyclobutyl-5-(2,5-dimethoxypyridin-3-yl)-2,3-dihydropyrrolo[3,4-b]quinolin-1-one] | 3.35 | 0.087 | 0.47 |
| COc1cc(F)c(-c2cccc3c(N)c4c(nc23)CN(C2CCC2)C4=O)c(F)c1 [9-Amino-2-cyclobutyl-5-(2,6-difluoro-4-methoxyphenyl)-2,3-dihydropyrrolo[3,4-b]quinolin-1-one] | 1.43 | −0.023 | 0.13 |
